Legend:
[1] = molecular target: T1, Cytochrome P450 26A1 (Homo sapiens, UniProt O43174); assay: (§1) Cell-Based Inhibitor Assay: CYP26A1 or CYP26B1 stably transfected HeLa cells were maintained in Minimum Essential Medium (MEM) containing 10% fetal bovine serum (FBS) and 100 μg/mL hygromycin. Exponentially growing cells were harvested by incubation in trypsin. Cells were then collected and re-plated in 48-well culture plates at 5×10^5 cells in 0.2 mL of culture medium containing 0.05 μCi [3H]-RA in the presence or absence of increasing concentrations of a test compound. The test compounds were diluted in dimethyl sulfoxide (DMSO) and then added in duplicate to wells at 0.01, 0.1, 1, 10 and 100 μM final concentration. […] Cells were incubated for 3 hours at 37° C. Retinoids were then extracted using the procedure of Bligh, et al., (1959), Canadian Journal of Biochemistry 37, 911-917, which was modified by using dichloromethane instead of chloroform. Each sample's water soluble radioactivity level was quantified using a β-scintillation counter (using Ecolume scintillation fluid, available from MP Biomedicals of Solon, Ohio, USA).
T1 sequence (O43174 whole entry): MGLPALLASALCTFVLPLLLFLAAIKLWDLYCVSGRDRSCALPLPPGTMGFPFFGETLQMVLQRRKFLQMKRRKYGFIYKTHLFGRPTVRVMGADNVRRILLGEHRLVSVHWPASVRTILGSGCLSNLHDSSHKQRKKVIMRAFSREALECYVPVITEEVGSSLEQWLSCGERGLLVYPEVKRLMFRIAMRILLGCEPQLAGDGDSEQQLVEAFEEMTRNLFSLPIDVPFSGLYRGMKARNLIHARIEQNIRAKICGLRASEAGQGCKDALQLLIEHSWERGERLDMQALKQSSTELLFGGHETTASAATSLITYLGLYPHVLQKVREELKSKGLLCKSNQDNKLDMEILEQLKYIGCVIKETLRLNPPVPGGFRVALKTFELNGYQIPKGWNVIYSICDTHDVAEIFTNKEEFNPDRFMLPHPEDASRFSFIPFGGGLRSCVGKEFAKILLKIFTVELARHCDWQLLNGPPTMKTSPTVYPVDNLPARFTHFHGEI

[2] = molecular target: T2, Cytochrome P450 26B1 (Homo sapiens, UniProt Q9NR63); assay: as §1
T2 sequence (Q9NR63 whole entry): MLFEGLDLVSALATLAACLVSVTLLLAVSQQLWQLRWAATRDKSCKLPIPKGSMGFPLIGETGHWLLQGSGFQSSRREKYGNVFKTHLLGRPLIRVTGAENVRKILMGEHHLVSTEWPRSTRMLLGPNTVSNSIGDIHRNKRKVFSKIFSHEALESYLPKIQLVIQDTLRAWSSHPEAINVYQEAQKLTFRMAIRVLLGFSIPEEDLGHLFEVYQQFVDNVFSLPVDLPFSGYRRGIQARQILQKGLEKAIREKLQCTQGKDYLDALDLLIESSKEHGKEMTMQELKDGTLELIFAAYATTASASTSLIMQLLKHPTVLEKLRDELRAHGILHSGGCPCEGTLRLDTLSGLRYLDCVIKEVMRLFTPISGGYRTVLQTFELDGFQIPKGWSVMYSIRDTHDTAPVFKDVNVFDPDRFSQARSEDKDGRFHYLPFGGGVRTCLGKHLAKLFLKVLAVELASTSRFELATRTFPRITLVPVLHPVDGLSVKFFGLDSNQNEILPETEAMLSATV

IC50 [1]	IC50 [2]	SMILES
1.9 µM	21.8 µM	Cc1ccc(NS(=O)(=O)c2cc(C)c3c(c2)C(C)(C)CC(C)(C)O3)cc1
0.47 µM	> 1000 µM	Cc1cc2c(cc1S(=O)(=O)Nc1ccc(CC(=O)O)cc1)C(C)(C)CCC2(C)C

Source: ChEMBL document CHEMBL5728169, “Compounds and methods for inhibiting CYP26 enzymes” (2020)
